The assay concerns the target T1, human oxytocin receptor (Homo sapiens, UniProt P30559).
T1 construct: host or cells: CHO cells (pcDNA3.1 vector)
T1 sequence (P30559 1-389): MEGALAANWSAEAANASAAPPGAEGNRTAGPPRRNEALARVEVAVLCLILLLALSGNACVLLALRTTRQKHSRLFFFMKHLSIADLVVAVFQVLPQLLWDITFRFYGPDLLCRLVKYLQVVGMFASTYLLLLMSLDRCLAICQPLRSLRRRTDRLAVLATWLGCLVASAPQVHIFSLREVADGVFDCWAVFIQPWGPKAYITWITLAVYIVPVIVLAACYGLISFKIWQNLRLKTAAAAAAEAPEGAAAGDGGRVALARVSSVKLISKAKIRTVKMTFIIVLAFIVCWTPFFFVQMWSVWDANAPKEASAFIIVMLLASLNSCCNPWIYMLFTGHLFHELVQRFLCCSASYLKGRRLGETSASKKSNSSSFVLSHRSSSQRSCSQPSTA
Put plainly: Oxytocin binding in Chinese Hamster Ovary cell membranes expressing human oxytocin receptors. The conditions noted are these: 100 nM, CHO cell membranes, [3H]oxytocin, values without parentheses, read-out: OT % inhibition @ 100% nM.

Consider `COc1cccc(-c2ccc(C(=O)N3Cc4ccc(C(=O)NCCC5CCCN5C)n4Cc4ccccc43)cc2OC)c1` (stereo not drawn) [Example 172, 10-[(2,3′-Dimethoxy[1,1′-biphenyl]-4-yl)carbonyl]-N-[2-(1-methyl-2-pyrrolidinyl)ethyl]-10,11-dihydro-5H-pyrrolo[2,1-c][1,4]benzodiazepine-3-carboxamide], for which the inhibition – broadly, how much of the control response was suppressed – at 0.1 µM was 47%. As to `CN1CCCC1CCNC(=O)c1ccc2n1Cc1ccccc1N(C(=O)c1ccc(-c3cccc4ccccc34)cc1Cl)C2` (stereo not drawn) [Example 173, 10-[2-Chloro-4-(1-naphthyl)benzoyl]-N-[2-(1-methyl-2-pyrrolidinyl)ethyl]-10,11-dihydro-5H-pyrrolo[2,1-c][1,4]benzodiazepine-3-carboxamide], the inhibition at 0.1 µM turned out to be 21%. Consider `Cc1cc(C(=O)N2Cc3ccc(C(=O)NCCC4CCCN4C)n3Cc3ccccc32)ccc1-c1ccccc1C(F)(F)F` (stereo not drawn) [Example 174, N-[2-(1-Methyl-2-pyrrolidinyl)ethyl]-10-{[2-methyl-2′-(trifluoromethyl)[1,1′-biphenyl]-4-yl]carbonyl}-10,11-dihydro-5H-pyrrolo[2,1-c][1,4]benzodiazepine-3-carboxamide], for which the inhibition at 0.1 µM is 59%. For `COc1ccccc1-c1ccc(C(=O)N2Cc3ccc(C(=O)N(C)C4CCN(C)CC4)n3Cc3ccccc32)cc1C` [Example 175, 10-[(2′-Methoxy-2-methyl[1,1′-biphenyl]-4-yl)carbonyl]-N-methyl-N-(1-methyl-4-piperidinyl)-10,11-dihydro-5H-pyrrolo[2,1-c][1,4]benzodiazepine-3-carboxamide], the inhibition at 0.1 µM was 98%. Turning to `COc1cccc(-c2ccc(C(=O)N3Cc4ccc(C(=O)N(C)C5CCN(C)CC5)n4Cc4ccccc43)cc2C)c1` [Example 176, 10-[(3′-Methoxy-2-methyl[1,1′-biphenyl]-4-yl)carbonyl]-N-methyl-N-(1-methyl-4-piperidinyl)-10,11-dihydro-5H-pyrrolo[2,1-c][1,4]benzodiazepine-3-carboxamide], the inhibition at 0.1 µM is 88%. Take `COc1ccccc1-c1ccc(C(=O)N2Cc3ccc(C(=O)N(C)C4CCN(C)CC4)n3Cc3ccccc32)cc1` [Example 177, 10-[(2′-Methoxy[1,1′-biphenyl]-4-yl)carbonyl]-N-methyl-N-(1-methyl-4-piperidinyl)-10,11-dihydro-5H-pyrrolo[2,1-c][1,4]benzodiazepine-3-carboxamide]: the inhibition at 0.1 µM worked out at 98%. `Cc1ccccc1-c1ccc(C(=O)N2Cc3ccc(C(=O)N(C)C4CCN(C)CC4)n3Cc3ccccc32)cc1` [Example 178, N-Methyl-10-[(2′-methyl[1,1′-biphenyl]-4-yl)carbonyl]-N-(1-methyl-4-piperidinyl)-10,11-dihydro-5H-pyrrolo[2,1-c][1,4]benzodiazepine-3-carboxamide]: the inhibition at 0.1 µM worked out at 93%. Consider `COc1cc(C(=O)N2Cc3ccc(C(=O)N(C)C4CCN(C)CC4)n3Cc3ccccc32)ccc1-c1ccccc1C` [Example 179, 10-[(2-Methoxy-2′-methyl[1,1′-biphenyl]-4-yl)carbonyl]-N-methyl-N-(1-methyl-4-piperidinyl)-10,11-dihydro-5H-pyrrolo[2,1-c][1,4]benzodiazepine-3-carboxamide], for which the inhibition at 0.1 µM stood at 93%. In the case of `COc1cc(-c2ccccc2C)c(Cl)cc1C(=O)N1Cc2ccc(C(=O)N(C)C3CCN(C)CC3)n2Cc2ccccc21` [Example 180, 10-[(6-Chloro-3-methoxy-2′-methyl[1,1′-biphenyl]-4-yl)carbonyl]-N-methyl-N-(1-methyl-4-piperidinyl)-10,11-dihydro-5H-pyrrolo[2,1-c][1,4]benzodiazepine-3-carboxamide], the inhibition at 0.1 µM worked out at 98%. `COc1cccc(-c2cc(OC)c(C(=O)N3Cc4ccc(C(=O)N(C)C5CCN(C)CC5)n4Cc4ccccc43)cc2Cl)c1` [Example 181, 10-[(6-Chloro-3,3′-dimethoxy[1,1′-biphenyl]-4-yl)carbonyl]-N-methyl-N-(1-methyl4-piperidinyl)-10,11-dihydro-5H-pyrrolo[2,1-c][1,4]benzodiazepine-3-carboxamide]: the inhibition at 0.1 µM was determined as 100%.

For the compound `COc1cc(C(=O)N2Cc3ccc(C(=O)N(C)C4CCN(C)CC4)n3Cc3ccccc32)ccc1-c1cccc2ccccc12` [Example 182, 10-[3-Methoxy-4-(1-naphthyl)benzoyl]-N-methyl-N-(1-methyl-4-piperidinyl)-10,11-dihydro-5H-pyrrolo[2,1-c][1,4]benzodiazepine-3-carboxamide], the inhibition at 0.1 µM turned out to be 70%. For the compound `COc1ccccc1-c1ccc(C(=O)N2Cc3ccc(C(=O)N(C)C4CCN(C)CC4)n3Cc3ccccc32)cc1OC` [Example 183, 10-[(2,2′-Dimethoxy[1,1′-biphenyl]-4-yl)carbonyl]-N-methyl-N-(1-methyl-4-piperidinyl)-10,11-dihydro-5H-pyrrolo[2,1-c][1,4]benzodiazepine-3-carboxamide], the inhibition at 0.1 µM worked out at 97%.

For the compound `Cc1cc(C(=O)N2Cc3ccc(C(=O)N(C)C4CCN(C)CC4)n3Cc3ccccc32)ccc1-c1ccccc1C(F)(F)F` [Example 184, N-Methyl-N-(1-methyl-4-piperidinyl)-10-{[2-methyl-2′-(trifluoromethyl)[1,1′-biphenyl]-4-yl]carbonyl}-10,11-dihydro-5H-pyrrolo[2,1-c][1,4]benzodiazepine-3-carboxamide], the inhibition at 0.1 µM amounted to 83%.

For `COc1ccccc1-c1ccc(C(=O)N2Cc3ccc(C(=O)N(C)C4CCN(C)C4)n3Cc3ccccc32)cc1C` (stereo not drawn) [Example 185, 10-[(2′-Methoxy-2-methyl[1,1′-biphenyl]-4-yl)carbonyl]-N-methyl-N-(1-methyl-3-pyrrolidinyl)-10,11-dihydro-5H-pyrrolo[2,1-c][1,4]benzodiazepine-3-carboxamide], the inhibition at 0.1 µM stood at 95%. With `COc1cccc(-c2ccc(C(=O)N3Cc4ccc(C(=O)N(C)C5CCN(C)C5)n4Cc4ccccc43)cc2C)c1` (stereo not drawn) [Example 186, 10-[(3′-Methoxy-2-methyl[1,1′-biphenyl]-4-yl)carbonyl]-N-methyl-N-(1-methyl-3-pyrrolidinyl)-10,11-dihydro-5H-pyrrolo[2,1-c][1,4]benzodiazepine-3-carboxamide] the figure was 97%; with `COc1ccccc1-c1ccc(C(=O)N2Cc3ccc(C(=O)N(C)C4CCN(C)C4)n3Cc3ccccc32)cc1` (stereo not drawn) [Example 187, 10-[(2′-Methoxy[1,1′-biphenyl]-4-yl)carbonyl]-N-methyl-N-(1-methyl-3-pyrrolidinyl)-10,11-dihydro-5H-pyrrolo[2,1-c][1,4]benzodiazepine-3-carboxamide], 100%.

For the compound `Cc1ccccc1-c1ccc(C(=O)N2Cc3ccc(C(=O)N(C)C4CCN(C)C4)n3Cc3ccccc32)cc1` (stereo not drawn) [Example 188, N-Methyl-10-[(2′-methyl[1,1′-biphenyl]-4-yl)carbonyl]-N-(1-methyl-3-pyrrolidinyl)-10,11-dihydro-5H-pyrrolo[2,1-c][1,4]benzodiazepine-3-carboxamide], the inhibition at 0.1 µM was found to be 96%. On to `COc1cc(C(=O)N2Cc3ccc(C(=O)N(C)C4CCN(C)C4)n3Cc3ccccc32)ccc1-c1ccccc1C` (stereo not drawn) [Example 189, 10-[(2-Methoxy-2′-methyl[1,1′-biphenyl]-4-yl)carbonyl]-N-methyl-N-(1-methyl-3-pyrrolidinyl)-10,11-dihydro-5H-pyrrolo[2,1-c][1,4]benzodiazepine-3-carboxamide], for which the inhibition at 0.1 µM turned out to be 99%.

The record behind these values is patent US7109193B2, “Tricyclic diazepines tocolytic oxytocin receptor antagonists” (Wyeth, priority 2001, dated 2006).
